One assay concerns HeLa. The assay is described as follows: Antiproliferative activity against human HeLa cells assessed as inhibition of cell growth by MTT assay relative to control. Type of assay: functional.
The species entered for assay [1] is Bos taurus. Put plainly: Inhibition of bovine kidney TNAP relative to control. Also noted: concentration or dose not given beside the values. The settings on record: concentration not given here.
Assay [2] is filed under the species Bos taurus. The assay is described as follows: Inhibition of calf intestinal alkaline phosphatase relative to control. Also noted: concentration or dose not given beside the values. The settings on record: concentration not given here.
Assay [3] is described as follows: Inhibition of calf intestinal alkaline phosphatase. Details: species or system Bos taurus.
Assay [4] in a line: Inhibition of bovine kidney TNAP. Details: species or system Bos taurus.

In general, inhibition refers to the percentage by which the read-out fell short of the control. Consider `CCOC(=O)c1s/c(=N\C(=O)c2cc(OC)c(OC)c(OC)c2)oc1C`, for which, in the assay on HeLa, the “growth inhibition (GI)” value is recorded as 58.07%. Further, the results for the inhibition in the assay filed under Bos taurus [1] and in the assay filed under Bos taurus [2] were 47.1% and 36.5%, respectively.
Take `CCOC(=O)c1s/c(=N\C(=O)c2ccco2)oc1C`: in the assay on HeLa, the “growth inhibition (GI)” value is 42.11%. Further, the figures for the inhibition in the assay listed under Bos taurus [1] and in the assay filed under Bos taurus [2] were 45.7% and 33.1%, respectively.
A word on the IC50: it is the concentration that gives 50% inhibition. In the case of `N[C@@H](Cc1ccccc1)C(=O)O` [PHENYLALANINE], in assay [3], the IC50 was determined as 80.2 µM.
For the compound `CCOC(=O)c1s/c(=N\C(=O)c2cccc(Br)c2)oc1C`, the figures for the IC50 in assay [4] and in assay [3] were 6.51 µM and 1.16 µM, respectively. In addition, the “growth inhibition (GI)” value in the assay with HeLa is listed as 4.61%.
Take `CCOC(=O)c1s/c(=N\C(=O)c2ccccc2[N+](=O)[O-])oc1C`: in the assay on HeLa, the “growth inhibition (GI)” value was found to be 2.42%. Besides, the inhibition is 44.5% in the assay listed under Bos taurus [1] and 35.4% in the assay listed under Bos taurus [2].
The corresponding values for `CCOC(=O)c1s/c(=N\C(=O)c2ccccc2)oc1C` are 69.03%, 39.1% and 30.4%.
Regarding `CCOC(=O)c1s/c(=N\C(=O)CCCc2ccccc2)oc1C`, the IC50 is 2.41 µM in assay [4] and 0.67 µM in assay [3]. Further, the “growth inhibition (GI)” value with HeLa is given as 3.96%.
Take `CCOC(=O)c1s/c(=N\C(=O)Cc2ccccc2)oc1C`: in the assay with HeLa, the “growth inhibition (GI)” value is on record as 4.15%. Besides, the results for the inhibition in the assay listed under Bos taurus [1] and in the assay listed under Bos taurus [2] were 41.4% and 25.3%, respectively.
Consider `CCOC(=O)c1s/c(=N\C(=O)c2ccccc2Cl)oc1C`, for which, in assay [4], the IC50 was 30.4 µM. The “growth inhibition (GI)” value in the assay on HeLa was determined as 51.53%. Further, the inhibition in the assay listed under Bos taurus [2] was determined as 45.3%.
With `c1ccc([C@H]2CN3CCSC3=N2)cc1` [LEVAMISOLE], in assay [4], the IC50 is 19.2 µM.
Consider `CCOC(=O)c1s/c(=N\C(=O)c2ccc(Cl)cc2)oc1C`, for which the inhibition in the assay listed under Bos taurus [1] came to 48.3%; in the assay filed under Bos taurus [2], 27.9%.
As for `CCOC(=O)c1s/c(=N\C(=O)c2ccccc2C)oc1C`, the “growth inhibition (GI)” value with HeLa is reported as 9.8%. The inhibition in the assay listed under Bos taurus [1] is 28.8%; in the assay filed under Bos taurus [2], 19.5%.
Turning to `CCOC(=O)c1s/c(=N\C(=O)c2cccc(Cl)c2)oc1C`, in assay [3], the IC50 came to 2.9 µM. Further, in the assay on HeLa, the “growth inhibition (GI)” value is 8.07%. In the assay filed under Bos taurus [1], this compound returned an inhibition of 45.3%.
As for `CCOC(=O)c1s/c(=N\C(=O)c2cccc(C)c2)oc1C`, the “growth inhibition (GI)” value in the assay on HeLa came out at 33.07%. The inhibition in the assay filed under Bos taurus [1] worked out at 30.9%; in the assay filed under Bos taurus [2], 28.9%.
`CCOC(=O)c1s/c(=N\C(=O)c2ccc([N+](=O)[O-])cc2)oc1C` came in with an IC50 in assay [4] of 0.37 µM. Further, in the assay with HeLa, the “growth inhibition (GI)” value is given as 21.53%. Further, in the assay listed under Bos taurus [2], the inhibition turned out to be 40.4%.

Values taken from ChEMBL document CHEMBL4622867, “An efficient synthetic approach toward a sporadic heterocyclic scaffold: 1,3-Oxathiol-2-ylidenes; alkaline phosphatase inhibition and molecular docking studies” (Bioorg Med Chem Lett, 2020).
